The OligoGym collection
Several values for one entry are separate records, joined by “and”; a condition that tells them apart may be missing. Equal entries are not always repeated. After the bases stand the sugars from the 5' end (letter, count) and the backbone: PS all phosphorothioate, else s phosphorothioate and o phosphodiester by linkage. Methylation of C is not given here. e = 2'-O-(2-methoxyethyl) (MOE); l = locked nucleic acid (LNA); k = constrained ethyl (cEt); d = 2'-deoxy (DNA)

Key:
ANGPTL2 = conditions: ASO
KRAS = conditions: ASO

Row | Sequence | target mRNA inhibition (ANGPTL2; 5 µM) | target mRNA inhibition (ANGPTL2; 25 µM) | target mRNA inhibition (KRAS; A431, 2 µM) | further results
1 | CTAGATTTCTTTCAGTTTG (sugars l2 d14 l3, PS) | 62.7% and 67.4% | 67.5% and 77.3% | – | –
2 | GTTCTCCAGGGAAGTGTA (sugars l1 d15 l2, PS) | 47.4% | 57.7% | – | –
3 | CTAGGCACTCAATCCCA (sugars l1 d14 l2, PS) | 21.9% | 31.5% | – | –
4 | TTACATGCCGCCAGAGGAA (sugars l1 d16 l2, PS) | 45.6% | 52.3% | – | –
5 | TGAATGGAAGATACAAAACT (sugars l4 d12 l4, PS) | 11.6% | 44.7% | – | –
6 | ACCATTTTGAGATTCCC (sugars l2 d13 l2, PS) | 30% | 24.7% | – | –
7 | AAGCTGTTGAAATGTATG (sugars l3 d11 l4, PS) | 41.3% | 30.4% | – | –
8 | CTGGTTGATGATGCGGTTG (sugars l1 d16 l2, PS) | 52.7% | 60.5% | – | –
9 | GCAGCTCATTGTTGAGCA (sugars l1 d15 l2, PS) | -2.7% | -0.5% | – | –
10 | GAATTTTCTTTACCTTAG (sugars l4 d11 l3, PS) | 41.4% | 56% | – | –
11 | TTATAGGGTGGAATAAA (sugars l4 d9 l4, PS) | 18.2% | 26.9% | – | –
12 | AAGCATCATTGAAAATTC (sugars l4 d10 l4, PS) | 75.9% | 85.1% | – | –
13 | GTGCCAAATCCTAGACA (sugars l2 d13 l2, PS) | 54.5% | 68.2% | – | –
14 | GAGTTTGGATCATAGAA (sugars l4 d10 l3, PS) | 41.2% | 65.8% | – | –
15 | CCACACCCAACATTTTA (sugars l2 d13 l2, PS) | 56.8% | 63% | – | –
16 | TGATGATGCGGTTGTA (sugars l3 d11 l2, PS) | 73.8% | 85.9% | – | –
17 | GTAGGTAGGCGAGGAG (sugars l2 d12 l2, PS) | 16.3% | -18.7% | – | –
18 | GATGATGCGGTTGTAGGT (sugars l1 d15 l2, PS) | 62.4% | 73% | – | –
19 | TTGATGATGCGGTTGTAGG (sugars l1 d16 l2, PS) | 44.8% | 55.9% | – | –
20 | TAGCAGATGGGGCACAA (sugars l1 d12 l4, PS) | 22.9% | 12.4% | – | –
21 | ATTTTGAGATTCCCCCAAAG (sugars l1 d17 l2, PS) | 10.8% | 2.99% | – | –
22 | CCATTTTGAGATTCCCC (sugars l1 d14 l2, PS) | 26.4% | 11.8% | – | –

Row | Sequence | target mRNA inhibition (ANGPTL2; 5 µM) | target mRNA inhibition (ANGPTL2; 25 µM) | target mRNA inhibition (KRAS; A431, 2 µM) | further results
23 | TGGTTGATGATGCGGTT (sugars l2 d13 l2, PS) | 81.7% | 87.5% | – | –
24 | CCTGGTAAAATCTTACA (sugars l3 d11 l3, PS) | 37.4% | 48.2% | – | –
25 | GTTTCTGACAAAGCCCG (sugars l1 d13 l3, PS) | 79.6% | 84.3% | – | –
26 | ACTTCTATTCTTGGACC (sugars l2 d13 l2, PS) | 47.8% | 55.7% | – | –
27 | TCAGTGGTGAGATGGGTCAC (sugars l1 d17 l2, PS) | 29.1% | 40.7% | – | –
28 | CAAGAGGGAGGGGAGGACA (sugars l1 d16 l2, PS) | 36.8% | 42.9% | – | –
29 | TCTCCTAAGAGCAAAGCT (sugars l2 d14 l2, PS) | 37.2% | 52.9% | – | –
30 | CCAGTTCCTGAAGAAGTTA (sugars l1 d15 l3, PS) | 27.8% | 30.1% | – | –
31 | CCAACCATAAATTAATTG (sugars l4 d10 l4, PS) | 61.8% | 74.5% | – | –
32 | ACATGTATATTATGAAGGTA (sugars l4 d14 l2, PS) | 18.1% | 8.64% | – | –
33 | CAGGCCAACACTAACTCGG (sugars l1 d16 l2, PS) | 49% | 57% | – | –
34 | TGATGTGGTGAGACAGTA (sugars l2 d14 l2, PS) | 53.6% | 70.5% | – | –
35 | TTATAAAGACAAGAGCCT (sugars l3 d12 l3, PS) | 34.5% | 47.3% | – | –
36 | CATCTAAGGAATGTGGT (sugars l4 d11 l2, PS) | 63.7% | 71.9% | – | –
37 | TTCTGGTAGTGGGCACAG (sugars l1 d15 l2, PS) | 36.8% | 37.1% | – | –
38 | ACCATTTTGAGATTCCCC (sugars l1 d15 l2, PS) | -8.3% | 18.9% | – | –
39 | ACTAAATGAACTTCCACA (sugars l4 d11 l3, PS) | 44.6% | 64.9% | – | –
40 | ATGATGCGGTTGTAGG (sugars l2 d11 l3, PS) | 69.8% | 81.1% | – | –
41 | GCTTGCGGATGATCTC (sugars l2 d12 l2, PS) | 38% | 70.9% | – | –
42 | TGAATTAGTCTCCATT (sugars k3 d10 k3, PS) | – | – | 17% | –
43 | ACCAGTGTTAAGAGAA (sugars kkdddddddddkekek, PS) | – | – | 49% | –
44 | AGGAGTCTTTATAGTA (sugars kkkddddddddkekek, PS) | – | – | 22% | –

Row | Sequence | target mRNA inhibition (ANGPTL2; 5 µM) | target mRNA inhibition (ANGPTL2; 25 µM) | target mRNA inhibition (KRAS; A431, 2 µM) | further results
45 | TTGTTGAGCTATCCAA (sugars k3 d10 k3, PS) | – | – | 3% | –
46 | GCATTCCTCAGACAAATC (sugars l2 d14 l2, PS) | 43.6% | 56.9% | – | –
47 | GTCCAGTGATACTTTC (sugars k3 d10 k3, PS) | – | – | 44% | –
48 | TCTGTCTATTCATACC (sugars k3 d10 k3, PS) | – | – | 12% | –
49 | GATTTGTCAGCAGGAC (sugars kddddddddddkekek, PS) | – | – | 57% | target mRNA inhibition (KRAS; A431, 0.185 µM): 16%; target mRNA inhibition (KRAS; A431, 0.556 µM): 46%; target mRNA inhibition (KRAS; A431, 1.667 µM): 62%; target mRNA inhibition (KRAS; A431, 5 µM): 78%
50 | ATTGTGCTGAGCTTGA (sugars kkddddddddkekekk, PS) | – | – | 31% | –
51 | TTAGGGGAATTACAAG (sugars k3 d10 k3, PS) | – | – | 23% | –
52 | AAAAAATTAATGTCTT (sugars k3 d10 k3, PS) | – | – | 9% | –
53 | CAGTGTGACTCAGTTA (sugars k3 d9 k3 e1, PS) | – | – | 42% | –
54 | AGATTGTGCTGAGCTT (sugars kkkddddddddkdkdk, PS) | – | – | 42% | –
55 | TGATGATGCGGTTGTAGGT (sugars l1 d16 l2, PS) | 45.5% | 63.9% | – | –
56 | TAGTTTCCATTGCCTT (sugars k3 d10 k3, PS) | – | – | 16% | –
57 | TATGCAATGTTAATTT (sugars k3 d10 k3, PS) | – | – | 8% | –
58 | TGTATCTTGTTGAGCT (sugars k3 d10 k3, PS) | – | – | 31% | –
59 | TCTATTCATACCAGGT (sugars k3 d10 k3, PS) | – | – | 26% | –
60 | TGCTAATAATTTAGTG (sugars k3 d10 k3, PS) | – | – | 6% | –
61 | ACCAGTGTTAAGAGAA (sugars k3 d10 k3, PS) | – | – | 60% | target mRNA inhibition (KRAS; A431, 0.185 µM): 5% and 3%; target mRNA inhibition (KRAS; A431, 0.556 µM): 39% and 19%; target mRNA inhibition (KRAS; A431, 1.667 µM): 59% and 43%; target mRNA inhibition (KRAS; A431, 5 µM): 72% and 60%
62 | GTGCTCTGTGAAGATTA (sugars l2 d11 l4, PS) | 66.6% | 81.3% | – | –
63 | GGCATTGCTAGTTCAA (sugars k3 d10 k3, PS) | – | – | 43% | –
64 | ACTCTCTATGAAAGCT (sugars k3 d10 k3, PS) | – | – | 29% | –
65 | TCCATTTATGTGACTA (sugars kkkdddddddddkeke, PS) | – | – | 8% | –
66 | TTCTGATGTGACTCAG (sugars k3 d10 k3, PS) | – | – | 26% | –

Row | Sequence | target mRNA inhibition (ANGPTL2; 5 µM) | target mRNA inhibition (ANGPTL2; 25 µM) | target mRNA inhibition (KRAS; A431, 2 µM) | further results
67 | GATGATGCGGTTGTAGG (sugars l2 d13 l2, PS) | 67% | 78% | – | –
68 | AGGAGTCTTTATAGTA (sugars kddddddddddkekek, PS) | – | – | 31% | –
69 | CATTGCTAGTTCAAAA (sugars k3 d10 k3, PS) | – | – | 9% | –
70 | TTCTCCTAGAAAGCAGT (sugars l1 d12 l4, PS) | 43% | 61.9% | – | –
71 | TTTAAAAAAAAAATTA (sugars k3 d10 k3, PS) | – | – | 3% | –
72 | ACTTTTTGACAAATGG (sugars k3 d10 k3, PS) | – | – | 46% | –
73 | AATCTTATGGTTAGGG (sugars k3 d10 k3, PS) | – | – | 45% | target mRNA inhibition (KRAS; A431, 0.185 µM): 2%; target mRNA inhibition (KRAS; A431, 0.556 µM): 2%; target mRNA inhibition (KRAS; A431, 1.667 µM): 35%; target mRNA inhibition (KRAS; A431, 5 µM): 52%
74 | CATTTATGTGACTAGA (sugars kkddddddddkekekk, PS) | – | – | 20% | –
75 | GTCCAGTGATACTTTC (sugars kkkdddddddddkeke, PS) | – | – | 33% | –
76 | ATGCAATGTTAATTTA (sugars k3 d10 k3, PS) | – | – | 9% | –
77 | TGTTTATGCAATGTTA (sugars kkddddddddkekekk, PS) | – | – | 56% | target mRNA inhibition (KRAS; A431, 0.185 µM): 22%; target mRNA inhibition (KRAS; A431, 0.556 µM): 47%; target mRNA inhibition (KRAS; A431, 1.667 µM): 68%; target mRNA inhibition (KRAS; A431, 5 µM): 76%
78 | TGCAGTGTGACTCAGT (sugars k3 d10 k3, PS) | – | – | 55% | –
79 | AATTGTGCAATGGTGA (sugars k3 d10 k3, PS) | – | – | 46% | –
80 | TCTTGATTTGTCAGCA (sugars kkddddddddddkeke, PS) | – | – | 91% and 92% | target mRNA inhibition (KRAS; A431, 0.037 µM): 84%; target mRNA inhibition (KRAS; A431, 0.125 µM): 65% and 61%; target mRNA inhibition (KRAS; NCI-H460, 0.037 µM): 67.6%
81 | GATTGTGCTGAGCTTG (sugars kkkddddddddkekek, PS) | – | – | 37% | –
82 | TGTCTATTCATACCAG (sugars k3 d10 k3, PS) | – | – | 16% | –
83 | TTAGTGATTAGGTCAA (sugars kdddddddddkekeke, PS) | – | – | 0% | –
84 | CAAATGCTAATAATTT (sugars k3 d10 k3, PS) | – | – | 0% | –
85 | ATTACTTATGCAGAGA (sugars k3 d10 k3, PS) | – | – | 60% | –
